Source: paper PMC4890880 (ACS infectious diseases, 2016)
Where two headings read alike, the source gives them in different places.

What was measured:
HepG2-A16-CD81EGFP cells = details: for HepG2 Tox% @ 50 uM rep1 / HepG2 Tox% @ 50 uM rep2: human; for IC50: read-out: Tox_IC50, HepG2 cytotoxicity; for IC50 / Tox_max_inhibition (%): sheet 2nd round; for Tox_max_inhibition (%): maximal inhibition in dose response
[1] = system: Plasmodium berghei (Pb-Luc) exoerythrocytic-stage parasites; assay: microbe, parasite or virus in culture
[2] = system: Plasmodium berghei (Pb-Luc) exoerythrocytic-stage parasites; details: for normalized signal at concentration 10 / normalized signal at concentration 0.000508053 / normalized signal at concentration 0.00152416 / normalized signal at concentration 0.00457247 / normalized signal at concentration 0.0137174 / normalized signal at concentration 0.0411523 / normalized signal at concentration 0.123457 / normalized signal at concentration 0.37037 / normalized signal at concentration 1.11111 / normalized signal at concentration 3.33333: fraction of control; for IC50: read-out: PbLuc_IC50; for IC50 / PbLuc_max_inhibition (%): sheet 2nd round; for PbLuc_max_inhibition (%): maximal inhibition in dose response
[3] = read-out: Inhibition% @ 50 uM rep1
[4] = read-out: Inhibition% @ 50 uM rep2
[5] = first series of dose-response columns
[6] = second series of dose-response columns
[7] = second series of columns (replicate)

## COc1ccc(Nc2cc(C)nc(NCc3ccccc3)n2)cc1 [MMV006825]
HepG2-A16-CD81EGFP cells
  HepG2 Tox% @ 50 uM rep1: 97%
[1]; [3]
  inhibition at 50 µM: 100%
[1]; [4]
  inhibition at 50 µM: 100%

## CN(C)CCCNCc1ccc(-c2ccc(F)c(Cl)c2)o1 [MMV020505]
HepG2-A16-CD81EGFP cells
  HepG2 Tox% @ 50 uM rep1: 96%
[1]; [3]
  inhibition at 50 µM: 98%
[1]; [4]
  inhibition at 50 µM: 98%

## COc1ccc(CCN2CCC(CN(C)Cc3cnn(-c4ccccc4)c3)CC2)cc1 [MMV666069]
HepG2-A16-CD81EGFP cells
  HepG2 Tox% @ 50 uM rep1: 99%
  HepG2 Tox% @ 50 uM rep2: 100%
[1]; [3]
  inhibition at 50 µM: 101%
[1]; [4]
  inhibition at 50 µM: 103%

## O=C(CCc1ccccc1)c1ccccc1OCC(O)CN1CCCCC1 (centres unmarked) [MMV009015]
HepG2-A16-CD81EGFP cells
  HepG2 Tox% @ 50 uM rep1: 97%
[1]; [3]
  inhibition at 50 µM: 99%
[1]; [4]
  inhibition at 50 µM: 100%

## OC(CNCc1ccccc1)Cn1c2ccccc2c2ccccc21 (centres unmarked) [MMV000839]
HepG2-A16-CD81EGFP cells
  HepG2 Tox% @ 50 uM rep1: 99%
[1]; [3]
  inhibition at 50 µM: 101%
[1]; [4]
  inhibition at 50 µM: 100%

## CCOC(=O)c1cnc2ccc(Cl)cc2c1NCCCN(C)C [MMV006882]
HepG2-A16-CD81EGFP cells
  HepG2 Tox% @ 50 uM rep1: 99%
[1]; [3]
  inhibition at 50 µM: 99%
[1]; [4]
  inhibition at 50 µM: 102%

## FC(F)(F)c1cccc(CNC2CCN(CCc3ccccc3)CC2)c1 [MMV665979]
HepG2-A16-CD81EGFP cells
  HepG2 Tox% @ 50 uM rep1: 99%
  HepG2 Tox% @ 50 uM rep2: 99%
[1]; [3]
  inhibition at 50 µM: 101%
[1]; [4]
  inhibition at 50 µM: 99%

## CCOc1cc2c(cc1OCC)C(c1cc(Cl)ccc1O)NCC2 (centres unmarked) [MMV000478]
HepG2-A16-CD81EGFP cells
  HepG2 Tox% @ 50 uM rep1: 101%
[1]; [3]
  inhibition at 50 µM: 103%
[1]; [4]
  inhibition at 50 µM: 104%

## N=c1n(CCN2CCCCC2)c2ccccc2n1CC(O)c1cccc(Br)c1 (centres unmarked) [MMV665902]
HepG2-A16-CD81EGFP cells
  HepG2 Tox% @ 50 uM rep1: 101%
  HepG2 Tox% @ 50 uM rep2: 102%
[1]; [3]
  inhibition at 50 µM: 104%
[1]; [4]
  inhibition at 50 µM: 105%

## COc1ccc2nc(C)cc(Nc3cccc(O)c3)c2c1 [MMV008212]
HepG2-A16-CD81EGFP cells
  HepG2 Tox% @ 50 uM rep1: 99%
[1]; [3]
  inhibition at 50 µM: 99%
[1]; [4]
  inhibition at 50 µM: 102%

## COc1cc(-c2nc(-c3ccccc3)c(-c3ccccc3)[nH]2)cc(OC)c1O [MMV020750]
HepG2-A16-CD81EGFP cells
  HepG2 Tox% @ 50 uM rep1: 102%
[1]; [3]
  inhibition at 50 µM: 103%
[1]; [4]
  inhibition at 50 µM: 104%

## O=C1c2ccc3c4c(ccc(c24)C(=O)N1CCCCO)C(=O)N(CCCCO)C3=O [MMV009085]
HepG2-A16-CD81EGFP cells
  HepG2 Tox% @ 50 uM rep1: 102%
[1]; [3]
  inhibition at 50 µM: 103%
[1]; [4]
  inhibition at 50 µM: 104%

## OCCNc1nc(Nc2ccc(Cl)c(Cl)c2)nc2ccccc12 [MMV001041]
HepG2-A16-CD81EGFP cells
  HepG2 Tox% @ 50 uM rep1: 98%
[1]; [3]
  inhibition at 50 µM: 99%
[1]; [4]
  inhibition at 50 µM: 101%

## COc1nc(Nc2ccc(C(C)C)cc2)nc(OC)n1 [MMV007808]
HepG2-A16-CD81EGFP cells
  HepG2 Tox% @ 50 uM rep1: 94%
  HepG2 Tox% @ 50 uM rep2: 95%
[1]; [3]
  inhibition at 50 µM: 101%
[1]; [4]
  inhibition at 50 µM: 96%

## COc1ccccc1C(=O)ON=C(N)Cc1cccc2ccccc12 [MMV666686]
HepG2-A16-CD81EGFP cells
  HepG2 Tox% @ 50 uM rep1: 101%
[1]; [3]
  inhibition at 50 µM: 104%
[1]; [4]
  inhibition at 50 µM: 104%

## COc1ccc2nc(N)nc(C)c2c1 [MMV665897]
HepG2-A16-CD81EGFP cells
  HepG2 Tox% @ 50 uM rep1: 97%
[1]; [3]
  inhibition at 50 µM: 100%
[1]; [4]
  inhibition at 50 µM: 101%

## CCOc1ccc(Nc2c3ccccc3nc3ccccc23)cc1 [MMV000304]
HepG2-A16-CD81EGFP cells
  HepG2 Tox% @ 50 uM rep1: 102%
[1]; [3]
  inhibition at 50 µM: 104%
[1]; [4]
  inhibition at 50 µM: 104%

## CCC(O)c1ccc(Br)cc1NC(=O)c1cccc(Cl)c1 (centres unmarked) [MMV020654]
HepG2-A16-CD81EGFP cells
  HepG2 Tox% @ 50 uM rep1: 101%
  HepG2 Tox% @ 50 uM rep2: 101%
[1]; [3]
  inhibition at 50 µM: 104%
[1]; [4]
  inhibition at 50 µM: 106%

## Oc1ccc2ccccc2c1CNc1nc2ccccc2[nH]1 [MMV011832]
HepG2-A16-CD81EGFP cells
  HepG2 Tox% @ 50 uM rep1: 100%
[1]; [3]
  inhibition at 50 µM: 99%
[1]; [4]
  inhibition at 50 µM: 101%

## COc1ccc(C(=O)Nc2ccc3nc(N4CCCCC4)cc(C)c3c2)cc1OC [MMV019758]
HepG2-A16-CD81EGFP cells
  HepG2 Tox% @ 50 uM rep1: 101%
  HepG2 Tox% @ 50 uM rep2: 101%
[1]; [3]
  inhibition at 50 µM: 104%
[1]; [4]
  inhibition at 50 µM: 104%

## CCOC(=O)c1cnc2ccc(OC)cc2c1NCc1ccccc1 [MMV665813]
HepG2-A16-CD81EGFP cells
  HepG2 Tox% @ 50 uM rep1: 102%
[1]; [3]
  inhibition at 50 µM: 103%
[1]; [4]
  inhibition at 50 µM: 104%

## CCCCC(O)(c1ccc(Cl)cc1)C(CN1CCOCC1)c1ccc(Cl)cc1 (centres unmarked) [MMV000619]
HepG2-A16-CD81EGFP cells
  HepG2 Tox% @ 50 uM rep1: 97%
[1]; [3]
  inhibition at 50 µM: 99%
[1]; [4]
  inhibition at 50 µM: 100%

## CC(C)CNC(=O)c1c(N)n(CCc2ccccc2F)c2nc3ccccc3nc12 [MMV396744]
HepG2-A16-CD81EGFP cells
  HepG2 Tox% @ 50 uM rep1: 99%
  HepG2 Tox% @ 50 uM rep2: 99%
[1]; [3]
  inhibition at 50 µM: 101%
[1]; [4]
  inhibition at 50 µM: 103%

## CCn1c(CN2CCN(Cc3ccccc3)CC2)nc2cc(NC(=O)c3cccs3)ccc21 [MMV020439]
HepG2-A16-CD81EGFP cells
  HepG2 Tox% @ 50 uM rep1: 98%
  HepG2 Tox% @ 50 uM rep2: 99%
[1]; [3]
  inhibition at 50 µM: 99%
[1]; [4]
  inhibition at 50 µM: 102%

## C[C@@H]1CCCCO[C@@H](CN(C)S(=O)(=O)c2ccc(F)cc2)[C@@H](C)CN([C@@H](C)CO)C(=O)c2cc(N(C)C)ccc2O1 [BRD-K74261250-001-01-9]
HepG2-A16-CD81EGFP cells
  IC50: > 10 µM
  Tox_max_inhibition (%): 6.44%
[2]; [5]
  normalized signal at concentration 10: 0.8467
[2]; first series
  normalized signal at concentration 0.000508053: 1.172
  normalized signal at concentration 0.00152416: 0.9183
  normalized signal at concentration 0.00457247: 0.77
  normalized signal at concentration 0.0137174: 1.0389
  normalized signal at concentration 0.0411523: 0.8236
  normalized signal at concentration 0.123457: 0.9547
  normalized signal at concentration 0.37037: 1.005
  normalized signal at concentration 1.11111: 0.9156
  normalized signal at concentration 3.33333: 1.13
[2]; Broad compounds, dose response
  IC50: > 10 µM
[2]; [6]
  normalized signal at concentration 10: 0.7483
[2]; second series
  normalized signal at concentration 0.000508053: 1.01
  normalized signal at concentration 0.00152416: 0.834
  normalized signal at concentration 0.00457247: 1.154
  normalized signal at concentration 0.0137174: 0.7879
  normalized signal at concentration 0.0411523: 0.9255
  normalized signal at concentration 0.123457: 1.124
  normalized signal at concentration 0.37037: 0.8451
  normalized signal at concentration 1.11111: 0.9426
  normalized signal at concentration 3.33333: 1.1
[2]
  PbLuc_max_inhibition (%): 25%

## C[C@@H]1CCCCO[C@H](CN(C)S(=O)(=O)c2ccc(F)cc2)[C@@H](C)CN([C@@H](C)CO)C(=O)c2cc(N(C)C)ccc2O1 [BRD-K27035180-001-01-0]
HepG2-A16-CD81EGFP cells
  IC50: > 10 µM
  Tox_max_inhibition (%): 10%
[2]; first series of columns
  normalized signal at concentration 0.000508053: 0.9801
  normalized signal at concentration 0.00152416: 1.117
  normalized signal at concentration 0.00457247: 0.8737
  normalized signal at concentration 0.0137174: 0.9285
  normalized signal at concentration 0.0411523: 1.068
  normalized signal at concentration 0.123457: 0.9867
  normalized signal at concentration 0.37037: 0.8491
  normalized signal at concentration 1.11111: 1.048
  normalized signal at concentration 3.33333: 0.9262
  normalized signal at concentration 10: 0.8261
[2]; Pb-Luc exoerythrocytic stage, 10-point dose response, top concentration 10
  IC50: > 10 µM
[2]; [7]
  normalized signal at concentration 0.000508053: 0.9613
  normalized signal at concentration 0.00152416: 1.064
  normalized signal at concentration 0.00457247: 0.9935
  normalized signal at concentration 0.0137174: 0.8637
  normalized signal at concentration 0.0411523: 1.045
  normalized signal at concentration 0.123457: 0.8684
  normalized signal at concentration 0.37037: 1.143
  normalized signal at concentration 1.11111: 0.8369
  normalized signal at concentration 3.33333: 1.121
  normalized signal at concentration 10: 0.5603
[2]
  PbLuc_max_inhibition (%): 44%

## COCC(=O)N1C[C@H](C)[C@@H](OC)CN(C)C(=O)c2ccc(NC(=O)Nc3cccc(F)c3)cc2OC[C@@H]1C [BRD-K86826411-001-01-1]
HepG2-A16-CD81EGFP cells
  IC50: > 10 µM
  Tox_max_inhibition (%): 13%
[2]; [5]
  normalized signal at concentration 10: 0.9867
[2]; first series
  normalized signal at concentration 0.000508053: 0.8374
  normalized signal at concentration 0.00152416: 0.9593
  normalized signal at concentration 0.00457247: 1.078
  normalized signal at concentration 0.0137174: 1.13
  normalized signal at concentration 0.0411523: 1.203
  normalized signal at concentration 0.123457: 1.151
  normalized signal at concentration 0.37037: 1.155
  normalized signal at concentration 1.11111: 1.129
  normalized signal at concentration 3.33333: 1.057
[2]; Broad compounds, dose response
  IC50: > 10 µM
[2]; [6]
  normalized signal at concentration 10: 0.6676
[2]; second series
  normalized signal at concentration 0.000508053: 0.905
  normalized signal at concentration 0.00152416: 1.0576
  normalized signal at concentration 0.00457247: 1.018
  normalized signal at concentration 0.0137174: 1.011
  normalized signal at concentration 0.0411523: 0.9885
  normalized signal at concentration 0.123457: 1.0489
  normalized signal at concentration 0.37037: 0.9498
  normalized signal at concentration 1.11111: 1.1227
  normalized signal at concentration 3.33333: 1.155
[2]
  PbLuc_max_inhibition (%): 33%
